Consider 7 compounds from PubChem BioAssay (NCI).

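Each compound was tested at five concentrations against cells in 96-well plates for 48 hours. Abbreviation: GI50, concentration required for 50% inhibition of growth. TGI: concentration producing complete growth inhibition.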

Among the test systems are NCI-H460 lung; UO-31 renal; RXF 393 renal; OVCAR-8 ovarian; SK-MEL-5 melanoma; DU-145 prostate; NCI-H522 lung; UACC-257 melanoma; NCI-H23 lung; KM12 colon.
Holding throughout (assay): growth of human tumour cells (NCI), 48 h

Take `CCN(C(=O)CN1CCN(c2cc3c(cc2F)c(=O)c(C(=O)O)cn3CC)CC1)c1nc(-c2ccccc2)cs1`: the GI50 was 0.394 µM with NCI-H460 lung; 0.266 µM in the test on UO-31 renal; 0.381 µM with RXF 393 renal; 0.364 µM with OVCAR-8 ovarian; 0.238 µM in the test with SK-MEL-5 melanoma; 0.453 µM in the test on DU-145 prostate. Also, the GI50 is 0.259 µM with NCI-H522 lung, 0.307 µM in the test with UACC-257 melanoma, 0.315 µM in the test with NCI-H23 lung and 0.393 µM with KM12 colon. Further, the TGI was greater than 100 µM in the test on NCI-H460 lung; greater than 100 µM with UO-31 renal; greater than 100 µM in the test with RXF 393 renal; greater than 100 µM with OVCAR-8 ovarian; 0.551 µM with SK-MEL-5 melanoma; greater than 100 µM in the test with DU-145 prostate. The TGI in the test on NCI-H522 lung was 0.813 µM; in the test with UACC-257 melanoma, 1.55 µM; in the test on NCI-H23 lung, greater than 100 µM; with KM12 colon, greater than 100 µM.

For the compound `CCOC1OC(=O)[C@H]2[C@@H]1[C@@H]1CC[C@H]2O1` (stereo not given in full), the GI50 with NCI-H460 lung, in the test with UO-31 renal, in the test with RXF 393 renal, with OVCAR-8 ovarian, in the test with SK-MEL-5 melanoma and in the test on DU-145 prostate was greater than 100 µM throughout. Also, the GI50 in the test on NCI-H522 lung was greater than 100 µM; in the test with UACC-257 melanoma it was greater than 100 µM; in the test with NCI-H23 lung, greater than 100 µM; in the test with KM12 colon, greater than 76.2 µM. The TGI in the test on NCI-H460 lung, with UO-31 renal, in the test on RXF 393 renal, in the test on OVCAR-8 ovarian, with SK-MEL-5 melanoma and in the test with DU-145 prostate was greater than 100 µM each time. Moreover, the TGI in the test with NCI-H522 lung, with UACC-257 melanoma, in the test on NCI-H23 lung and in the test with KM12 colon was greater than 100 µM throughout.

With `CC1=C(C(=O)Nc2ccc(F)c(Cl)c2)C(c2ccccc2O)NC(=O)N1` (stereo not given), the GI50 was 96.6 µM in the test with NCI-H460 lung; 80.7 µM in the test on UO-31 renal; greater than 100 µM in the test with RXF 393 renal; greater than 100 µM in the test on OVCAR-8 ovarian; 41.2 µM in the test on SK-MEL-5 melanoma; greater than 100 µM in the test with DU-145 prostate. The GI50 in the test on NCI-H522 lung is 61.9 µM; in the test on UACC-257 melanoma, greater than 100 µM; in the test with NCI-H23 lung, greater than 100 µM; with KM12 colon, 70.9 µM. Also, the TGI in the test with NCI-H460 lung, in the test on UO-31 renal, in the test with RXF 393 renal, with OVCAR-8 ovarian, in the test with SK-MEL-5 melanoma and in the test with DU-145 prostate was greater than 100 µM in each case. The TGI with NCI-H522 lung, in the test on UACC-257 melanoma, in the test on NCI-H23 lung and in the test with KM12 colon was greater than 100 µM throughout.

For the compound `O=C1/C(=C/c2cccc(Br)c2)COc2ccc(O)c(O)c21`, the GI50 in the test on NCI-H460 lung was 2.14 µM; in the test with UO-31 renal it was 0.958 µM; in the test on RXF 393 renal it was 1.38 µM; in the test with OVCAR-8 ovarian, 1.06 µM; in the test with SK-MEL-5 melanoma it was 1.63 µM; in the test on DU-145 prostate it was 1.42 µM. Moreover, the GI50 was 0.175 µM in the test on NCI-H522 lung, 1.54 µM with UACC-257 melanoma, 1.74 µM in the test on NCI-H23 lung and 1.48 µM with KM12 colon. In addition, the TGI with NCI-H460 lung was found to be 5.42 µM; in the test on UO-31 renal, 2.14 µM; with RXF 393 renal, 2.84 µM; in the test with OVCAR-8 ovarian it was 2.86 µM; with SK-MEL-5 melanoma it was 3.03 µM; with DU-145 prostate, 2.99 µM. Moreover, the TGI with NCI-H522 lung is 0.361 µM; with UACC-257 melanoma, 3.03 µM; in the test on NCI-H23 lung, 4.25 µM; in the test on KM12 colon, 3.64 µM.

For `NS(=O)(=O)c1cccc(-c2ccc3c(NC(=O)C4CC4)n[nH]c3c2)c1`, the GI50 with NCI-H460 lung is greater than 16.4 µM; in the test with UO-31 renal, greater than 25 µM; with RXF 393 renal it was greater than 15 µM; with OVCAR-8 ovarian, 24.3 µM; in the test on SK-MEL-5 melanoma, greater than 14.7 µM; in the test with DU-145 prostate, 14.7 µM. Further, the GI50 in the test with NCI-H522 lung is 5.32 µM; in the test with UACC-257 melanoma, greater than 18.1 µM; in the test with NCI-H23 lung it was greater than 25 µM; with KM12 colon it was 11.3 µM. The TGI in the test on NCI-H460 lung, in the test with UO-31 renal, in the test with RXF 393 renal, with OVCAR-8 ovarian, in the test on SK-MEL-5 melanoma and with DU-145 prostate was greater than 25 µM in each case. Also, the TGI in the test on NCI-H522 lung is greater than 19 µM; with UACC-257 melanoma, greater than 25 µM; in the test on NCI-H23 lung it was greater than 25 µM; in the test with KM12 colon, greater than 25 µM.

With `C=C1C(=O)O[C@H]2[C@H]1CC/C(CNC(=O)/C=C/c1ccccc1)=C\CC[C@@]1(C)O[C@@H]21`, the GI50 in the test on NCI-H460 lung is 2.18 µM; with UO-31 renal it was 1.21 µM; in the test on RXF 393 renal, 0.864 µM; in the test with OVCAR-8 ovarian it was 2.44 µM; with SK-MEL-5 melanoma, 1.68 µM; in the test on DU-145 prostate it was 0.603 µM. Further, the GI50 is 0.357 µM in the test with NCI-H522 lung, 1.53 µM with UACC-257 melanoma, 1.73 µM in the test with NCI-H23 lung and 4.94 µM in the test with KM12 colon. In addition, the TGI was 5.05 µM with NCI-H460 lung; 2.56 µM with UO-31 renal; 2.15 µM with RXF 393 renal; 9.78 µM in the test with OVCAR-8 ovarian; 3.06 µM in the test on SK-MEL-5 melanoma; 1.88 µM in the test on DU-145 prostate. Also, the TGI with NCI-H522 lung came to 1.71 µM; with UACC-257 melanoma, 3.99 µM; in the test on NCI-H23 lung, 3.9 µM; in the test with KM12 colon, 16.7 µM.

Consider `Cc1cccc2c(Nc3ccc(NS(C)(=O)=O)cc3)c3ccc([N+](=O)[O-])cc3nc12`, for which the GI50 is 0.0234 µM with NCI-H460 lung; 1.77 µM in the test with UO-31 renal; 1.38 µM in the test on RXF 393 renal; 1.3 µM in the test with OVCAR-8 ovarian; 0.487 µM with SK-MEL-5 melanoma; 0.253 µM with DU-145 prostate. Moreover, the GI50 in the test on NCI-H522 lung is 1.11 µM; in the test on UACC-257 melanoma it was 1.53 µM; with NCI-H23 lung it was 1.25 µM; in the test on KM12 colon, 0.694 µM. The TGI in the test with NCI-H460 lung came to 1.76 µM; with UO-31 renal, 13 µM; in the test on RXF 393 renal it was 3.1 µM; in the test with OVCAR-8 ovarian, 6.42 µM; in the test on SK-MEL-5 melanoma it was 1.99 µM; in the test with DU-145 prostate, 4.4 µM. For the same compound, the TGI is 2.52 µM in the test on NCI-H522 lung, 4.6 µM with UACC-257 melanoma, 4.31 µM in the test with NCI-H23 lung and 2.97 µM with KM12 colon.
